Data published in the supplement of paper PMC10307832.

Assays:
Assay in all cases: relative viability (nuclei count vs DMSO), 5 days (fraction); higher = more cells survive
[1] = system: HCC-827
Method in brief: (§1)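 Relative viability divides the nuclei count in treated wells by that in vehicle wells. Lung cancer cell lines were seeded in 1536-well plates, dosed by pin tool the next day, and fixed and stained after 5 days in one step with final 0.05% Triton X-100, 1% formaldehyde and 1 ug/ml Hoechst. Dosing was a single drug or a fixed anchor-drug dose plus five library-drug doses (not always all listed) in √10 steps, and values are medians of duplicate plates imaged at 4×.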

[2] = system: EMC-BAC-2
Method in brief: as §1

[3] = system: NCI-H1755
Method in brief: as §1

[4] = system: LCLC-97TM1
Method in brief: as §1

[5] = system: NCI-H661
Method in brief: as §1

[6] = system: NCI-H1355
Method in brief: as §1

[7] = system: HCC-15
Method in brief: as §1

[8] = system: NCI-H1792
Method in brief: as §1

[9] = system: RERF-LC-KJ
Method in brief: as §1

[10] = system: NCI-H1915
Method in brief: as §1

[11] = system: UMC-11
Method in brief: as §1

[12] = system: NCI-H838
Method in brief: as §1

[13] = system: COR-L23
Method in brief: as §1

[14] = system: NCI-H520
Method in brief: as §1

[15] = system: HARA
Method in brief: as §1

[16] = system: NCI-H3122
Method in brief: as §1

[17] = system: SW 1573
Method in brief: as §1

[18] = system: LC-2-ad
Method in brief: as §1

[19] = system: NCI-H2126
Method in brief: as §1

[20] = system: EKVX
Method in brief: as §1

[21] = system: H3255
Method in brief: as §1

[22] = system: NCI-H2405
Method in brief: as §1

[23] = system: NCI-H23
Method in brief: as §1

Nc1cccc2c1CN(C1CCC(=O)NC1=O)C2=O (stereo not given) [Lenalidomide] + CS(=O)(=O)N1CCN(Cc2cc3nc(-c4cccc5[nH]ncc45)nc(N4CCOCC4)c3s2)CC1 [Pictilisib] (partner 1 µM)
relative viability ([1]; first compound 0.253 µM): 1.03 | relative viability ([1]; first compound 0.8 µM): 1.11 | relative viability ([1]; first compound 2.53 µM): 0.925 | relative viability ([1]; first compound 8 µM): 0.834 | relative viability ([2]; first compound 0.253 µM): 0.532 | relative viability ([2]; first compound 0.8 µM): 0.474 | relative viability ([2]; first compound 2.53 µM): 0.535 | relative viability ([2]; first compound 8 µM): 0.411 | relative viability ([3]; first compound 0.253 µM): 0.407 | relative viability ([3]; first compound 0.8 µM): 0.322 | relative viability ([3]; first compound 2.53 µM): 0.521 | relative viability ([3]; first compound 8 µM): 0.325 | relative viability ([4]; first compound 0.8 µM): 0.182 | relative viability ([4]; first compound 2.53 µM): 0.261 | relative viability ([4]; first compound 8 µM): 0.165 | relative viability ([5]; first compound 0.253 µM): 0.59 | relative viability ([5]; first compound 0.8 µM): 0.369 | relative viability ([5]; first compound 2.53 µM): 0.44 | relative viability ([5]; first compound 8 µM): 0.329 | relative viability ([6]; first compound 0.253 µM): 0.419 | relative viability ([6]; first compound 0.8 µM): 0.258 | relative viability ([6]; first compound 2.53 µM): 0.429 | relative viability ([6]; first compound 8 µM): 0.259 | relative viability ([7]; first compound 0.253 µM): 0.744 | relative viability ([7]; first compound 2.53 µM): 0.768 | relative viability ([7]; first compound 8 µM): 0.668 | relative viability ([8]; first compound 0.253 µM): 0.298 | relative viability ([8]; first compound 0.8 µM): 0.192 | relative viability ([8]; first compound 2.53 µM): 0.264 | relative viability ([8]; first compound 8 µM): 0.184 | relative viability ([9]; first compound 0.253 µM): 0.494 | relative viability ([9]; first compound 0.8 µM): 0.46 | relative viability ([9]; first compound 2.53 µM): 0.543 | relative viability ([9]; first compound 8 µM): 0.534 | relative viability ([10]; first compound 0.253 µM): 0.9 | relative viability ([10]; first compound 0.8 µM): 0.793 | relative viability ([10]; first compound 2.53 µM): 1 | relative viability ([10]; first compound 8 µM): 0.857 | relative viability ([11]; first compound 0.253 µM): 0.893 | relative viability ([11]; first compound 0.8 µM): 0.512 | relative viability ([11]; first compound 2.53 µM): 0.819 | relative viability ([11]; first compound 8 µM): 0.627 | relative viability ([12]; first compound 0.253 µM): 0.505 | relative viability ([12]; first compound 0.8 µM): 0.318 | relative viability ([12]; first compound 2.53 µM): 0.518 | relative viability ([12]; first compound 8 µM): 0.387 | relative viability ([13]; first compound 0.253 µM): 0.778 | relative viability ([13]; first compound 0.8 µM): 0.7 | relative viability ([13]; first compound 2.53 µM): 0.924 | relative viability ([13]; first compound 8 µM): 0.64 | relative viability ([14]; first compound 0.253 µM): 0.353 | relative viability ([14]; first compound 0.8 µM): 0.362 | relative viability ([14]; first compound 2.53 µM): 0.293 | relative viability ([14]; first compound 8 µM): 0.259 | relative viability ([15]; first compound 0.253 µM): 0.367 | relative viability ([15]; first compound 0.8 µM): 0.327 | relative viability ([15]; first compound 2.53 µM): 0.438 | relative viability ([15]; first compound 8 µM): 0.206 | relative viability ([16]; first compound 0.253 µM): 0.653 | relative viability ([16]; first compound 0.8 µM): 0.733 | relative viability ([16]; first compound 2.53 µM): 0.589 | relative viability ([16]; first compound 8 µM): 0.414 | relative viability ([17]; first compound 0.253 µM): 0.518 | relative viability ([17]; first compound 0.8 µM): 0.483 | relative viability ([17]; first compound 2.53 µM): 0.504 | relative viability ([17]; first compound 8 µM): 0.524 | relative viability ([18]; first compound 0.253 µM): 0.434 | relative viability ([18]; first compound 0.8 µM): 0.487 | relative viability ([18]; first compound 2.53 µM): 0.467 | relative viability ([18]; first compound 8 µM): 0.538 | relative viability ([19]; first compound 0.253 µM): 0.501 | relative viability ([19]; first compound 0.8 µM): 0.423 | relative viability ([19]; first compound 2.53 µM): 0.458 | relative viability ([19]; first compound 8 µM): 0.421 | relative viability ([20]; first compound 0.253 µM): 0.456 | relative viability ([20]; first compound 0.8 µM): 0.39 | relative viability ([20]; first compound 2.53 µM): 0.401 | relative viability ([20]; first compound 8 µM): 0.366 | relative viability ([21]; first compound 0.253 µM): 0.459 | relative viability ([21]; first compound 0.8 µM): 0.519 | relative viability ([21]; first compound 2.53 µM): 0.526 | relative viability ([21]; first compound 8 µM): 0.406 | relative viability ([22]; first compound 0.253 µM): 0.423 | relative viability ([22]; first compound 0.8 µM): 0.438 | relative viability ([22]; first compound 2.53 µM): 0.37 | relative viability ([22]; first compound 8 µM): 0.269 | relative viability ([23]; first compound 0.253 µM): 0.372 | relative viability ([23]; first compound 0.8 µM): 0.576 | relative viability ([23]; first compound 2.53 µM): 0.523 | relative viability ([23]; first compound 8 µM): 0.378
